Laboratory results: PMC10587159, “Biosynthesis and engineering of the nonribosomal peptides with a C-terminal putrescine” (Nature Communications, 2023)
“Also recorded” adds a separate entry of the source. Non-standard residues stand in square brackets, D forms with d. Residues, ends and D or L forms follow the SMILES beside them. *: point of attachment. Lauroyl = CCCCCCCCCCCC(=O)*; NH(CH2)4NH2 = NCCCCN*

Key:
[1] = tested on: human lung adenocarcinoma cell A549; test: MTT cytotoxicity assay, A549; type: cell-based; details: 24 h
Outline: (§1)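 An MTT-based assay, run as in prior work, gives compound cytotoxicity here. The tested lines undergo routine authentication through morphology and gene/protein expression checks.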

[2] = tested on: HepG2 cells; test: Extracellular and intracellular compound in HepG2 cells (LC-MS); type: in vitro ADME, human; details: 3 h
Protocol: (§2) Comparing the concentration of compounds (7, 10, 10a) in extracellular and intracellular after the HepG2 cell line dealt with compounds. HepG2 cells were plated in six-well plates at a density of 1.5 × 10^5 cells/well and grew overnight. After cell treated with compounds (5 μg/mL) for 3 h, the compounds were extracted with MeOH for cells culture medium and cells separately as followed the reported method. The compounds were quantified by LC‒MS (5%‒95% ACN in 15 min). The cell numbers of HepG2 with the compounds treatments was determined. […]
(§3) To determine whether the difference in bioactivity of products (with or without Put moiety) is due to variations in cellular uptake, we treated hepatoma cell line HepG2 with compounds 7 (C12 acyl), 10 (C14 acyl), and 10a (C14 acyl and without Put) (Supplementary Fig. 33c). The cells were treated for 3 h, and then culture medium and cells were extracted separately. LC-MS was used to detect and quantify the compounds.
(§4) At lower concentrations (5000 ng/mL, and 10,000 ng in total for each group), and […]
(§5) may be contributing to the differences in antitumor activity (Supplementary Fig. 33b).
(§6) This could be due to differences in the speed of cellu lar uptake or differences in drug metabolism rate, requiring further experimental investigation.

[3] = tested on: S. brevitalea DSM 7029 wild type; test: Growth curve of DSM 7029 wild type with compounds (Bioscreen C); type: cell-based, Schlegelella brevitalea DSM 7029; details: CYMG medium
Protocol: The growth curve was tested by Bioscreen C (Labsystems, Finland) as follow. Overnight culture was inoculated into 400 μL fresh CYMG medium in the ratio of 1:100 (the concentration of compounds was 0.1 μg/μL) and shook in normal speed. The OD600 value was gained in every hour for 42 h in total. Biofilm formation was measured at 18 h and 36 h respectively, as reported previously. In brief, the free-floating cells were removed, and the microtitre plate was washed with PBS (pH 7.4) after incubation for 18 h and 36 h. The biofilm was stained by adding 200 µL of crystal violet (0.1%) solution. Crystal violet solution was removed after 15 min and 200 µL of ethanol (95%) was added. The absorbance at OD600 was read using a microplate reader (Infinite M200, Tecan, Männedorf, Switzerland). Meanwhile, free-floating cells were used to test the secretion of pigment. The bacteria were removed and the supernatant was measured at OD600.

[4] = tested on: human breast adenocarcinoma cells MDA-MB-231; test: cells; type: cell-based; details: 24 h
Outline: as §1

[5] = tested on: human colon cancer cell HCT-116; test: cells; type: cell-based; details: 24 h
Outline: as §1

[6] = tested on: human lung epithelial normal cell 2B; test: cells; type: cell-based; details: 24 h
Outline: as §1

[7] = tested on: human gastric cancer cell SGC-7901; test: cells; type: cell-based; details: 24 h
Outline: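 Cells were exposed to compounds and viability was then quantified by MTT assay, per an earlier published method. Panel included leukemia Kasumi, hepatoma HepG-2, gastric SGC-7901 and normal lung epithelial 2B cells.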

[8] = tested on: human breast adenocarcinoma cells MCF7; test: cells; type: cell-based; details: 24 h
Outline: as §1

[9] = tested on: human acute lymphoblastic leukemia cells K562; test: cells; type: cell-based; details: 24 h
Outline: as §1

[10] = tested on: human hepatoma cell HepG-2; test: cells; type: cell-based; details: 24 h
Outline: as §1

[11] = tested on: HepG2 cells; test: Cell numbers of HepG2 after compound treatment; type: cell-based, human; details: HepG2, 1.5 × 10^5 cells/well plated, compound 5 μg/mL, 3 h; mean of n = 3
Protocol: as §2, §3, §4, §5, §6

[12] = tested on: native host DSM 7029; test: Inhibition zone test on the native host DSM 7029; type: cell-based, Schlegelella brevitalea DSM 7029; details: same method as for the seven tested strains
Source text: The two human acute lymphoblastic leukemia cells K562 and Kasumi, two human breast adenocarcinoma cells MCF7 and MDA-MB-231, human hepatoma cell HepG-2, human lung adenocarcinoma cell A549, human gastric cancer cell SGC-7901, human colon cancer cell HCT-116, human ovarian cancer cell line SKOV3, or human lung epithelial normal cell 2B were obtained from Beyotime Biotechnology and utilized to test the cytotoxicity of compounds by MTT assays as previous study. The anti-inflammatory effect of the compounds was detected by the influence on the increase in the level of nitric oxide caused by lipopolysaccharide (LPS) based on the classic Griess method. RAW 264.7 cells (Shanghai Institutes for Biological Science) were seeded in 96-well plates and incubated for 24 h. Then, cells were treated with compounds 29, 29a, 31, and 31a (0-80 μM) for 30 min, followed by co-treatment with LPS ([…]) for another 24 h. The Nitric Oxide assay kit with Griess reagents (Beyotime, Lot: S0021, Shanghai, China) was used to examine cellular supernatant nitrite accumulation, which represents cellular NO levels. The OD value of 540 nm absorbance was detected with a microplate reader. Their authentication in the laboratory was performed regularly based on morphology and gene/protein expression. […]

In the case of `CCCCCCCCCCCC(=O)N[C@H](CCSC)C(=O)N[C@H](CC(N)=O)C(=O)N1CCC[C@H]1C(=O)N[C@H](C(=O)N[C@H](Cc1ccccc1)C(=O)N1CCC[C@H]1C(=O)N[C@@H](Cc1c[nH]c2ccccc12)C(=O)N[C@@H](C(=O)N[C@@H](C)C(=O)N[C@H](C)C(=O)N[C@@H](CO)C(=O)N[C@@H](C)C(=O)NCCCCN)C(C)C)C(C)C` [Compound 7, Glidonin G] (Lauroyl-[dM][dN]PV[dF]PW[dV]A[dA]SA-{NH(CH2)4NH2}), the IC50 [1] is reported as 7.64 ± 1.11 µM, the “total quantities (intracellular plus extracellular) in words” value ([2]; HepG2, 5000 ng/mL, compared to 10a) is reported as “lower total quantities” and the “Intracellular compound, Average” value ([2]; HepG2, six-well plates, 5 μg/mL (10,000 ng in total), cells extracted with MeOH, mean of n = 3) is reported as 13.4894 ng. For the same molecule, the “Extracellular compound, Average” value ([2]; HepG2, six-well plates, 5 μg/mL (10,000 ng in total), culture medium extracted with MeOH, mean of n = 3) was 2764.81 ng, the “effect on growth of DSM 7029 wild type in words” value ([3]; compound 0.1 μg/μL, OD600 every hour for 42 h, Bioscreen C) was “weak inhibition of growth; also recorded: obviously inhibit the growth” and the “OD600 of wild type DSM 7029 with addition of compounds” value ([3]; control OD600 0.6) was 0.4. For the same molecule, the IC50 [4] was 4.76 ± 0.79 µM, the IC50 [5] was over 20 µM and the IC50 [6] was 11.7 ± 1.5 µM. It also gave an IC50 [7] of over 20 µM, an IC50 [8] of over 20 µM and an IC50 [9] of 13.5 ± 4.44 µM. For the same molecule, the IC50 [10] was 8.3 ± 0.57 µM, the “The cell numbers, Average” value [11] was 1323333 and the “inhibition of native host DSM 7029, inhibition zone method” value [12] was “no inhibition”.
